One assay concerns the target T1, dopamine D2 receptor (Mus musculus, UniProt P61168).
T1 construct: from tissue; host or cells: striatum of homozygous transgenic (TgX15, chakragati) mice and normal heterozygous litter-mates
The experiment in a line: Radioligand binding assay of dopamine D2 receptor binding sites in striatum. The note with it: mean ± s.e.m., read-out: KD (dissociation constant between ligand and receptor).

The subject of a further assay is 6-OHDA-lesioned rodents. The note with it: cited from earlier work.
The subject of the next assay is chakragati mice. In words: Effect of apomorphine treatment on chakragati mice. The assay is classed as in vivo, mouse. The note with it: chakragati mice versus normal control mice.
[1] abbreviates: rats unilaterally depleted of dopamine by 6-hydroxydopamine lesions (Ungerstedt 1971).

This is an account of results in patent publication US5723719A, “Transgenic mouse as model for diseases involving dopaminergic dysfunction” (Health Research Inc., priority 1995, dated 1998).

Read-outs that look alike come from different tables or passages of the source.

T1 sequence (P61168 whole entry): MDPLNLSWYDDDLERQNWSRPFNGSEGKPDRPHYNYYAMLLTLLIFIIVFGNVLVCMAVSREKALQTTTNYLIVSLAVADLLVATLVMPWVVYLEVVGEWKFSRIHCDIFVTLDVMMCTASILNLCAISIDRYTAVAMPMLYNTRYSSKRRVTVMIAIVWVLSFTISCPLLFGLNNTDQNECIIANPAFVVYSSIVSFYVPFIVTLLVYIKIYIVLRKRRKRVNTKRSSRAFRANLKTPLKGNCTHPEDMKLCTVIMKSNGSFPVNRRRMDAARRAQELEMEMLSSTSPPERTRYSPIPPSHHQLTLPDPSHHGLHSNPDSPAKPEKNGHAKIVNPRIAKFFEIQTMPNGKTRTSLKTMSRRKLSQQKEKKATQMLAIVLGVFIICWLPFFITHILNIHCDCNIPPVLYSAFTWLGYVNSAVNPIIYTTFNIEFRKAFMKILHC
Experimental for dopamine D2 receptor: Radioligand binding assays were performed to analyze the density of dopamine D2 receptor binding sites in the striatum of mice of the present invention and normal heterozygous mice. […] The density of dopamine D2 binding sites are assayed by the ability of the striata to maximally bind ^[MUT]-methylspiperone (Bmax). Dissociation constants (KD) between the ligand and receptor were also measured.

Turning to `CN1CN(c2ccccc2)C2(CCN(CCCC(=O)c3ccc(F)cc3)CC2)C1=O` [^3 H-N-methylspiperone], the dissociation constant Kd was determined as 0.073 ± 0.008 nM on dopamine D2 receptor (striata of heterozygous litter-mates) and 0.081 ± 0.013 nM at dopamine D2 receptor (striata of homozygous transgenic mice).

For the molecule `CC(N)Cc1ccccc1` (stereo not drawn) [amphetamine], the Circling behavior elicited result with 6-OHDA-lesioned rodents (setting [1]) is on record as “high rates of circling behavior can be elicited”.

As for `CN1CCc2cccc3c2[C@H]1Cc1ccc(O)c(O)c1-3` [apomorphine], in the assay with chakragati mice, the “Effect of treatment on chakragati mice compared to normal control mice (circling)” value is “not significantly differ compared to the normal control mice”. Besides, the values for the Circling behavior elicited result in the assay with 6-OHDA-lesioned rodents (6-OHDA-lesioned rodents) and in the assay with 6-OHDA-lesioned rodents (setting [1]) were “elicits robust circling behavior” and “high rates of circling behavior can be elicited”, respectively.
